According to patent US8765689B2, “Anti-ageing peptides modulating survivin and compositions including same” (ISP Investments Inc., priority 2010, dated 2014):
Ends that are not written are not given here.

Assays:
[1] = system: RA and TOTAL keratinocytes; assay: MITOSOX test (mitochondrial production of free radicals under H2O2 or UVB stress); type: cell-based, human; conditions: peptide at 1% and 3%, 48 hours, stress 5 mM H2O2 30 minutes or UVB 100 mJ/cm^2
From the text: Mitosox is a reactant marketed by Invitrogen (molecular probes M36008). It is used during UV and H2O2 oxidative stress. It uses microscopic imaging to measure the mitochondrial production of free radicals (ROS) in cells. More particularly, Mitosox is specific to the superoxide anion, which is the predominant form of ROS.
Mitosox is applied to living cells: it permeates the membrane and once inside the cell, diffuses rapidly and specifically within the mitochondria. Once in the mitochondria, Mitosox is oxidized by the superoxide anion into a compound which provides red fluorescence. This reactant is easily oxidized by the superoxide anion but not by other free radicals, nor by reactive species of nitrogen (NOS).
RA and TOTAL keratinocytes (where TOTAL denotes an entire cellular fraction) were treated three times per day with the peptide compound of SEQ ID NO: 3 at concentrations of 1% and 3%, for 48 hours.
In a second step, the cells were placed under stress, caused: • either by exposure to 5 mM H2O2 solution for 30 minutes; • or by UVB radiation at 100 mJ/cm^2.
After stress application, the cells were rinsed and then returned into a suitable medium for one hour at 37° C. in a culture incubator. […] The results were read using fluorescence microscopy.

Survivin protein = Survivin protein expression by Western Blotting on cultured cellular fractions RA and SA1; type: cell-based, human; conditions: 48 hours, compound diluted to 3% (from a 10^-4 M solution)
Description: To investigate the role of the CPC proteins in the maintenance and protection of epidermal adult stem cells under various types of stress, several fractions of primary cells of human epidermis were prepared. Fractioning was carried out based on the adhesion time of cells to collagen IV: less than 20 minutes corresponds to fast adhesion (fraction RA), less than 5 hours, to slow adhesion No 1 (fraction SA1), less than 16 hours, to slow adhesion No 2 (fraction SA2), and lastly, non-adhering keratinocytes (fractions NA). […]
An investigation of the modulator effect of the peptide SEQ ID NO: 2 was conducted by evaluating the expression of the Survivin protein by Western Blotting on the cultured cellular fractions RA and SA1. The Western Blot technique is a conventional semi-quantitative method for assessing the proportion of proteins in cells.
Fractions RA and SA1 were grown in boxes 100 mm in diameter at 37° C. in a humidified atmosphere containing 5% CO2 for 48 hours with or without the compound, diluted to 3% (from a 10^−4 M solution). […] The quantitative evaluation of the proteins in the cells is performed using the Chemiimager software (Alpha Innotech Corporation USA). The amount of proteins is expressed as a percentage of the light intensity compared with that of the control conditions, under which no treatment has been received.

[2] = system: cellular fraction RA (enriched with epidermal adult stem cells); assay: Comets test on cellular fraction RA after UVB irradiation; type: cell-based, human; conditions: RA cells cultured 24 hours with peptide at 1%, then UVB 60 mJ/cm^2
Description: The comets test is a test that allows damage caused to DNA to be quantified at a cellular level.
To this end, in order to confirm the protective effect of a peptide compound according to the present invention, cells of the RA type were cultured for 24 hours with the peptide compound of sequence SEQ ID NO: 2 at a concentration of 1%, and then irradiated with
UVB radiation at 60 mJ/cm^2. […] The cells were then removed by trypsination from their carrier, and then centrifuged at 900 rpm for 5 minutes before being concentrated and counted.
A specific cell count (25,000 cells) was then incorporated into a 0.75% Low Melting agarose gel, and then deposited on a glass slide previously coated with 1% agarose. The slides were then immersed in a lysis solution for 1.5 hours at 4° C., and then in an alkaline solution for 20 minutes at 4° C. The cells were then lysed and the DNA denatured. The slides were immersed in an electrophoresis solution before applying an electric field (20 V-250 mA). The thus denatured DNA was subjected to migration within an agarose gel at 4° C. Applying a DNA fluorescent dye on the slides (2 μg/ml propidium iodide) allowed the DNA to be observed in the form of comets in those cases where it had been damaged.
Quantification software is used to determine the average Tail moment applied to each condition being tested. […]

Keratin K19 = Keratin K19 immunolabeling in UV-irradiated hair follicles maintained in culture; type: cell-based; conditions: hair follicles treated with 1% peptide 24 hours before UV irradiation (UVA 5 J/cm, UVB 200 mJ/cm^2); image analysis
Description: The hair follicles were sampled from a biopsy using a scalpel and fine pliers, and then cultured in 24-well plates using William's E medium in the presence of antibiotics (0.2% Primocin), 10 μg/ml insulin, 10 ng/ml hydrocortisone and 2 mmol/L L-glutamine.
The follicles were either treated or not with the 1% peptide compound SEQ ID NO: 2 in Williams' medium and then incubated for 24 hours. UV irradiation was then applied (UVA: 5 J/cm, UVB 200 mJ/cm^2), and the follicles were then re-cultured for 24 hours. At the end of the experiment, the follicles were incorporated within OCT and frozen at −196° C. (liquid nitrogen). The follicles were then placed in a cryostat in order to prepare 6-μm sections at a temperature of −23° C. The slides containing the sections were placed in an acetone bath for 10 minutes (fixing) and then rinsed.
The fixed sections were rinsed once with PBS for 5 minutes, and then wrapped in Pappen. Each section was incubated with 5 μl 5%-BSA for 30 minutes. Then, 50 μl of primary anti-Cytokeratin K19 antibody (Progen, Mouse monoclonal) diluted to 1/50th were added and incubated for one hour with stirring in a humid chamber. After rinsing with PBS for 30 minutes, 50 μl of a fluorescence-labeled secondary antibody was added and left for one hour in the dark with stirring in a humid chamber. […]

DAREMNWDT [SEQ ID NO: 3] was tested, and the “number of fluorescent cells (Mitosox, free radical production)” value [1] was “extremely low”.

For “Arg-Glu-Met-Asn-Trp-NH2 (REMNW-NH2) [SEQ ID NO: 2]”, the “expression of the Survivin protein” value (Survivin protein; fraction RA (very rich in epidermal adult stem cells)) was “increased”, the “expression of the Survivin protein” value (Survivin protein; fraction SA1 (less rich in epidermal adult stem cells)) was “increased” and the “Tail Moment decrease vs UVB control” value [2] was 44.7%. For the same substance, the “fluorescent values of Keratin K19” value (Keratin K19) was “+102.7%”.
